Data taken from patent US6727244B2, “Mammalian metabolites of a tachykinin receptor antagonist” (Merck & Co., Inc., priority 2000, dated 2004).

Columns and labels:
[1] = glucuronidation in liver microsomes from humans; assay type: in vitro ADME; details: human liver microsomes, UDPGA, 37° C. for 60 min
Protocol: All liver microsomal and cytosolic fractions were prepared using the following procedure. Thawed livers were homogenized with 2 volumes of 50 mM Tris-buffer (pH 7.5) containing 1.15% KCl. For microsomal and cytosolic preparations, the homogenate was centrifuged for 20 min at 9,000×g and the resulting supernatant was centrifuged for 60 min at 105,000×g. The resulting cytosolic fractions were re-centrifuged at 105,000×g for 60 min. Fractions of cytosol were aliquoted into small tubes and stored at −70° C. Subsequently, the microsomal pellets were washed with 10 mM EDTA containing 1.15% KCl and were centrifuged at 105,000×g for 60 min. […] Protein concentrations were determined by a modified Lowry assay (Smith et al., 1985). The specific cytochrome P450 content in each microsomal preparation was measured as described by Omura and Sato, J. Biol. Chem. 239, 2370-2378 (1964).
The typical reaction mixture (500 μl) containing 10 mM MgCl2, 2% glycerol, 0.02% lubrol PX, 3 mM UDPGA, 1 mg liver microsomes, 50 mM bis-tris propane buffer (pH 8.5) and ˜10 or 25 μM compound (in 15 μl methanol) was incubated at 37° C. for 30-60 min. After incubation, the reactions were terminated by the addition of four volumes of acetonitrile and processed and analyzed by HPLC as mentioned above.

human NK1 receptor = molecular target: T1, human NK1 receptor (Homo sapiens, UniProt P25103); assay: human NK1 receptor binding assay (125I-substance P, COS or CHO cells)
T1 construct: expressed in transfected cells
T1 sequence (P25103 whole entry): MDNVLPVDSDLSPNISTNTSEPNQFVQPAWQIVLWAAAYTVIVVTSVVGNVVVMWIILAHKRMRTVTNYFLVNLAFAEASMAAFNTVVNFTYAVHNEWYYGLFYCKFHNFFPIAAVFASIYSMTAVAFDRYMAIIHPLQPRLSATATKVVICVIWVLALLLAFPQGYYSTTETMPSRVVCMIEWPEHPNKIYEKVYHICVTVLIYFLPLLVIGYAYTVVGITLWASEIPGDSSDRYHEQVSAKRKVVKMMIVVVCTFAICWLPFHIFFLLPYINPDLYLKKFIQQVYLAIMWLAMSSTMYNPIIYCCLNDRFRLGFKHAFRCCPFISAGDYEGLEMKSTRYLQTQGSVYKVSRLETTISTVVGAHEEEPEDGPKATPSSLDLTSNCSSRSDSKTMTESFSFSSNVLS
Protocol: To express the cloned human neurokinin-1 receptor (NKIR) transiently in COS, the cDNA for the human NKIR was cloned into the expression vector pCDM9 which was derived from pCDM8 (INVITROGEN) by inserting the ampicillin resistance gene (nucleotide 1973 to 2964 from BLUESCRIPT SK+) into the Sac II site. Transfection of 20 ug of the plasmid DNA into 10 million COS cells was achieved by electroporation in 800 ul of transfection buffer (135 mM NaCl, 1.2 mM CaCl2, 1.2 mM MgCl2, 2.4 mM K2HPO4, 0.6 mM KH2PO4, 10 mM glucose, 10 mM HEPES pH 7.4) at 260 V and 950 uF using the IBI GENEZAPPER (IBI, New Haven, Conn.). The cells were incubated in 10% fetal calf serum, 2 mM glutamine, 100U/ml penicillin-streptomycin, and 90% DMEM media (GIBCO, Grand Island, N.Y.) in 5% CO2 at 37° C. for three days before the binding assay.
To establish a stable cell line expressing the cloned human NK1R, the cDNA was subcloned into the vector pRcCMV (INVITROGEN). Transfection of 20 ug of the plasmid DNA into CHO cells was achieved by electroporation in 800 ul of transfection buffer suplemented with 0.625 mg/ml Herring sperm DNA at 300 V and 950 uF using the IBI GENEZAPPER (IBI). The transfected cells were incubated in CHO media [10 % fetal calf serum, 100 U/ml pennicilin-streptomycin, 2 mM glutamine, 1/500 hypoxanthine-thymidine (ATCC), 90% IMDM media (JRH BIOSClENCES, Lenexa, Kans.), 0.7 mg/ml G418 (GIBCO)] in 5% CO2 at 37° C. until colonies were visible. Each colony was separated and propagated. The cell clone with the highest number of human NK1R was selected for subsequent applications such as drug screening.
The binding assay of human NK1R expressed in either COS or CHO cells is based on the use of ^125I-substance P (^125I-SP, from DU PONT, Boston, Mass.) as a radioactively labeled ligand which competes with unlabeled substance P or any other ligand for binding to the human NK1R. Monolayer cell cultures of COS or CHO were dissociated by the non-enzymatic solution (SPECIALTY MEDIA, Lavallette, N.J.) and resuspended in appropriate volume of the binding buffer (50 mM Tris pH 7.5, 5 mM MnCl2, 150 mM NaCl, 0.04 mg/ml bacitracin, 0.004 mg/ml leupeptin, 0.2 mg/ml BSA, 0.01 mM phosphoramidon) such that 200 ul of the cell suspension would give rise to about 10,000 cpm of specific ^125I-SP binding (approximately 50,000 to 200,000 cells). […] The bound radioactivity was separated from unbound radioactivity by GF/C filter (BRANDEL, Gaithersburg, Md.) which was pre-wetted with 0.1 % polyethylenimine. The filter was washed with 3 ml of wash buffer (50 mM Tris pH 7.5, 5 mM MnCl2, 150 mM NaCl) three times and its radioactivity was determined by gamma counter.

SMILES: C[C@@H](O[C@H]1OCCN[C@H]1c1ccc(F)cc1)c1cc(C(F)(F)F)cc(C(F)(F)F)c1 [Metabolite M-1, (2R,3S)-2-[(1R)-1-[3,5-bis(trifluoromethyl)phenyl]ethoxy]-3-(4-fluorophenyl)morpholine]
- conversion to the corresponding glucuronide [1]: ~20%
- IC50 (human NK1 receptor): 1 nM
